The values that follow are results of earlier work, collected in US20030054020A1, “Method and composition for reducing sebum secretion in mammals” (priority 2001, published 2003).

The data set relates to human sebaceous glands.

For the compound `CC1=C(/C=C/C(C)=C/C=C/C(C)=C\C(=O)O)C(C)(C)CCC1` [13-cis-retinoic acid], the “Reduction of the size of human sebaceous glands” value is “up to 90%”.
